Experimental data published in PMC4684212, “Toxoplasma gondii Chitinase Induces Macrophage Activation” (PLoS ONE, 2015).

Tested on: T1, Tg_chitinase
T1 construct: gene TGME49_286465
Experiment: colorimetric p-nitrophenol release at […] nm, non-linear regression
Assay type: biochemical, Toxoplasma gondii
Settings: substrate 0.01 to 0.1 mM; general assay 0.1 M sodium acetate buffer, 37°C; pH 4.0 and 50°C are the optima listed beside the Km

CC(=O)N[C@H]1[C@H](Oc2ccc([N+](=O)[O-])cc2)O[C@H](CO)[C@@H](O)[C@@H]1O [pNPGlcNAc] showed a Km of 340 µM.
